Measured values reported in patent US20070128217A1 (priority 2003, published 2007).

What was measured:
[1] = test system: antibodies in sera from SARS patients (sera 1a, 1b, 2, 6, 37, 62, London, SARS-yellow, SARS-green); assay type: binding, human; design: Binding of serum 6 to linear peptides of protein X1 of SARS-CoV Urbani / Binding of serum 37 to linear peptides of protein X1 of SARS-CoV Urbani / Binding of serum 6 to looped/cyclic peptide (PEPSCAN-ELISA) / Binding of serum 37 to looped/cyclic peptide (PEPSCAN-ELISA) / Binding of serum 37 to looped/cyclic peptides of protein X1 of SARS-CoV Urbani / Binding of serum 6 to linear peptides of protein X2 / Binding of serum 37 to linear peptides of protein X2 / Binding of serum 37 to looped/cyclic peptides of protein X2 of SARS-CoV Urbani / Binding of serum 6 to linear peptides of protein M of SARS-CoV Urbani / Binding of serum 37 to linear peptides of protein M of SARS-CoV Urbani / Binding of serum 6 to looped/cyclic peptides of protein M of SARS-CoV Urbani / Binding of serum 37 to looped/cyclic peptides of protein M of SARS-CoV Urbani / Binding of serum 6 to linear peptides of protein X3 of SARS-CoV Urbani / Binding of serum 37 to linear peptides of protein X3 of SARS-CoV Urbani / Binding of serum 37 to looped/cyclic peptides of protein X3 of SARS-CoV Urbani / Binding of serum 6 to linear peptides of protein X4 of SARS-CoV Urbani / Binding of serum 37 to linear peptides of protein X4 of SARS-CoV Urbani / Binding of serum 37 to looped/cyclic peptides of protein X4 of SARS-CoV Urbani / Binding of serum 6 to linear peptides of protein X5 of SARS-CoV Urbani / Binding of serum 37 to linear peptides of protein X5 of SARS-CoV Urbani / Binding of serum 37 to looped/cyclic peptides of protein X5 of SARS-CoV Urbani / Binding of serum 6 to linear peptides of protein N of SARS-CoV Urbani / Binding of serum 37 to linear peptides of protein N of SARS-CoV Urbani / Binding of serum 6 to linear peptide (PEPSCAN-ELISA) / Binding of serum 1a to looped/cyclic peptides of protein N of SARS-CoV Urbani / Binding of serum 1b to looped/cyclic peptides of protein N of SARS-CoV Urbani / Binding of serum 2 to looped/cyclic peptides of protein N of SARS-CoV Urbani / Binding of serum 6 to looped/cyclic peptides of protein N of SARS-CoV Urbani / Binding of serum 37 to looped/cyclic peptides of protein N of SARS-CoV Urbani / Binding of serum 62 to looped/cyclic peptides of protein N of SARS-CoV Urbani / Binding of serum London to looped/cyclic peptides of protein N of SARS-CoV Urbani / Binding of serum SARS-green to looped/cyclic peptides of protein N of SARS-CoV Urbani: unit not given here
[2] = test system: control sera (pooled serum of ten healthy LUMC hospital workers; commercial negative donor pooled serum from the Dutch bloodbank); assay type: binding, human; design: Binding of Control serum LUMC to linear peptides / Binding of Control serum Blood-bank to linear peptides / Binding of Control serum LUMC to looped peptides / Binding of Control Serum Blood-Bank to Looped peptides / Binding of Control serum LUMC to linear peptides of the protein M of SARS-CoV Urbani / Binding of Control serum Blood-bank to linear peptides of the protein M of SARS-CoV Urbani / Binding of Control serum LUMC to looped peptides of the protein M of SARS-CoV Urbani / Binding of Control Serum Blood-Bank to Looped peptides of the protein M of SARS-CoV Urbani: unit not given here
[3] = test system: rabbit serum obtained by immunizing a rabbit with the SARS-CoV strain Frankfurt 1; assay type: binding; design: Binding of a rabbit serum to linear peptides / Binding of a rabbit serum to looped peptides / Rabbit serum linear peptides / Rabbit serum looped peptides / Binding of a rabbit serum to linear peptides of protein N of SARS-CoV Urbani (Rabbit serum linear peptides) / Binding of a rabbit serum to looped/cyclic peptides of protein N of SARS-CoV Urbani (Rabbit serum looped peptides): unit not given here
[4] = test system: recombinant human anti-SARS-CoV antibody 03-018; assay type: binding; design: Binding of antibody 03-018 to linear peptides of the N protein of SARS-CoV Urbani / Binding of antibody 03-018 to looped/cyclic peptides of the N protein of SARS-CoV Urbani: unit not given here

Sequence	Binding of serum 1a to looped/cyclic peptides of protein N of SARS-CoV Urbani [1]	Binding of serum 1b to looped/cyclic peptides of protein N of SARS-CoV Urbani [1]	Binding of serum 2 to looped/cyclic peptides of protein N of SARS-CoV Urbani [1]	Binding of serum 6 to looped/cyclic peptides of protein N of SARS-CoV Urbani [1]	Binding of serum 37 to looped/cyclic peptides of protein N of SARS-CoV Urbani [1]	Binding of serum 62 to looped/cyclic peptides of protein N of SARS-CoV Urbani [1]	Binding of serum London to looped/cyclic peptides of protein N of SARS-CoV Urbani [1]	Binding of serum SARS-green to looped/cyclic peptides of protein N of SARS-CoV Urbani [1]	Binding of serum SARS-yellow to looped/cyclic peptides of protein N of SARS-CoV Urbani [1]	Binding of a rabbit serum to linear peptides of protein N of SARS-CoV Urbani (Rabbit serum linear peptides) [3]	Binding of a rabbit serum to looped/cyclic peptides of protein N of SARS-CoV Urbani (Rabbit serum looped peptides) [3]	Binding of antibody 03-018 to linear peptides of the N protein of SARS-CoV Urbani [4]	Binding of antibody 03-018 to looped/cyclic peptides of the N protein of SARS-CoV Urbani [4]	Binding of Control Serum Blood-Bank to Looped peptides [2]	Binding of Control serum Blood-bank to linear peptides [2]	Binding of Control serum LUMC to linear peptides [2]	Binding of Control serum LUMC to looped peptides [2]	Binding of serum 1a to linear peptide (PEPSCAN-ELISA) [1]	Binding of serum 1b to linear peptide (PEPSCAN-ELISA) [1]	Binding of serum 2 to linear peptide (PEPSCAN-ELISA) [1]	also measured
AQPLPQRQKKQPTVT	0.2	0.1	0.2	0.1	0.3	0.2	0.2	0.3	0.2	0.2	0.2	0.1	0.1	–	–	–	–	–	–	–	Binding of serum 1a to linear peptides of protein N of SARS-CoV Urbani [1]: 0.3; Binding of serum 1b to linear peptides of protein N of SARS-CoV Urbani [1]: 0.2; Binding of serum 2 to linear peptides of protein N of SARS-CoV Urbani [1]: 0.4; Binding of serum 6 to linear peptides of protein N of SARS-CoV Urbani [1]: 0.4; Binding of serum 37 to linear peptides of protein N of SARS-CoV Urbani [1]: 0.7; Binding of serum 62 to linear peptides of protein N of SARS-CoV Urbani [1]: 0.8; Binding of serum London to linear peptides of protein N of SARS-CoV Urbani [1]: 1.6; Binding of serum SARS-green to linear peptides of protein N of SARS-CoV Urbani [1]: 0.3; Binding of serum SARS-yellow to linear peptides of protein N of SARS-CoV Urbani [1]: 1.4; Control Serum Blood-Bank Looped peptides [2]: 0.4; Control serum Blood-bank linear peptides [2]: 0.6; Control serum LUMC linear peptides [2]: 0.7; Control serum LUMC looped peptides [2]: 0.3
ARPKQRRPQGLPNNT	0.2	0.1	0.4	0.2	0.5	0.5	0.3	0.2	0.2	0.2	0.4	0.1	0.2	0.6	0.6	0.6	0.5	–	–	–	Binding of serum 1a to linear peptides of protein N of SARS-CoV Urbani [1]: 0.2; Binding of serum 1b to linear peptides of protein N of SARS-CoV Urbani [1]: 0.1; Binding of serum 2 to linear peptides of protein N of SARS-CoV Urbani [1]: 0.3; Binding of serum 6 to linear peptides of protein N of SARS-CoV Urbani [1]: 0.2; Binding of serum 37 to linear peptides of protein N of SARS-CoV Urbani [1]: 0.7; Binding of serum 62 to linear peptides of protein N of SARS-CoV Urbani [1]: 0.6; Binding of serum London to linear peptides of protein N of SARS-CoV Urbani [1]: 0.5; Binding of serum SARS-green to linear peptides of protein N of SARS-CoV Urbani [1]: 0.5; Binding of serum SARS-yellow to linear peptides of protein N of SARS-CoV Urbani [1]: 0.5
ASKKPRQKRTATKQY	0.3	0.1	0.3	0.2	0.5	0.5	0.4	0.1	0.2	0.2	0.4	0.1	0.2	0.6	0.7	0.6	0.5	0.2	0.1	0.3	Binding of serum 6 to linear peptide (PEPSCAN-ELISA) [1]: 0.2; Binding of serum 37 to linear peptide (PEPSCAN-ELISA) [1]: 0.7; Binding of serum 62 to linear peptide (PEPSCAN-ELISA) [1]: 0.6; Binding of serum London to linear peptide (PEPSCAN-ELISA) [1]: 0.5; Binding of serum SARS-green to linear peptide (PEPSCAN-ELISA) [1]: 0.3; Binding of serum SARS-yellow to linear peptide (PEPSCAN-ELISA) [1]: 0.5
ASSRSSSRSRGNSRN	0.3	0.2	0.4	0.3	0.6	0.5	0.4	0.2	0.4	0.3	0.7	0.1	0.2	0.6	0.6	0.7	0.6	0.2	0.1	0.2	Binding of serum 6 to linear peptide (PEPSCAN-ELISA) [1]: 0.2; Binding of serum 37 to linear peptide (PEPSCAN-ELISA) [1]: 0.6; Binding of serum 62 to linear peptide (PEPSCAN-ELISA) [1]: 0.5; Binding of serum London to linear peptide (PEPSCAN-ELISA) [1]: 0.5; Binding of serum SARS-green to linear peptide (PEPSCAN-ELISA) [1]: 0.3; Binding of serum SARS-yellow to linear peptide (PEPSCAN-ELISA) [1]: 0.7
ATKQYNVTQAFGRRG	0.4	0.3	0.5	0.5	0.7	0.7	1.2	0.2	0.8	–	–	0.1	0.3	0.8	0.9	0.8	0.8	0.3	0.2	0.2	Binding of serum 6 to linear peptide (PEPSCAN-ELISA) [1]: 0.2; Binding of serum 37 to linear peptide (PEPSCAN-ELISA) [1]: 0.7; Binding of serum 62 to linear peptide (PEPSCAN-ELISA) [1]: 0.6; Binding of serum London to linear peptide (PEPSCAN-ELISA) [1]: 0.5; Binding of serum SARS-green to linear peptide (PEPSCAN-ELISA) [1]: 0.3; Binding of serum SARS-yellow to linear peptide (PEPSCAN-ELISA) [1]: 0.8; Recognition of the peptide by the rabbit serum [3]: recognized
